In one data set the target is T1, topoisomerase I (Homo sapiens, UniProt P11387).
T1 sequence (P11387 1-765): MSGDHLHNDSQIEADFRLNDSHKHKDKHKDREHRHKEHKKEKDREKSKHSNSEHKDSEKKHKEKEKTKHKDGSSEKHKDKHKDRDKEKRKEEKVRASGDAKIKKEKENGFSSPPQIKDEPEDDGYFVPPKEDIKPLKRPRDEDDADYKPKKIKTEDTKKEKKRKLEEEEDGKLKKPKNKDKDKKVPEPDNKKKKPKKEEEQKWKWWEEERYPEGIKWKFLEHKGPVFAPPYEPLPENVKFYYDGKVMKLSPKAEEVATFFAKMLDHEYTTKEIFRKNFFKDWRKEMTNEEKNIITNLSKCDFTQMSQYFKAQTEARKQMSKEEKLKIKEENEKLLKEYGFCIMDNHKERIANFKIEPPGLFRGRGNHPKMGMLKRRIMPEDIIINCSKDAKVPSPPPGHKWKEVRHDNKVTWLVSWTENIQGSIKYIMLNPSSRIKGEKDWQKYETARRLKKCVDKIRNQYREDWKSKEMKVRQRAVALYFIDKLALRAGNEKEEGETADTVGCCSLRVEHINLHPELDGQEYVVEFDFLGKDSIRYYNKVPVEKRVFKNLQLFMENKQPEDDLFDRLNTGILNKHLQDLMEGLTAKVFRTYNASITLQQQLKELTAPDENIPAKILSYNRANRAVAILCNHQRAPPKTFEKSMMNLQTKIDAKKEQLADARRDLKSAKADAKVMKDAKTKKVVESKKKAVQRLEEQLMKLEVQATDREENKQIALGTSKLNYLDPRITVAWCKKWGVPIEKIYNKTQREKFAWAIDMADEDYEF
Nature of the data set: Topoisomerase I poison/inhibitor EB gel assay. It counts as biochemical. As to conditions: compared with CPT (camptothecin). On the procedure:
The compound MA_AuPr clearly targets topoisomerase II if the statistical analysis of the NCI data for a range of drugs shown in FIG. 13 is correct. MA_AuPr was therefore assayed for its action against topoisomerase II in vitro using TopoGEN's standard protocol over a wide range of test agent concentrations (0.005 to 500 μM) in order to obtain direct experimental proof for the apparent cellular target of the compound to ensure that a fundamental understanding of the mechanism of action of this new class of Au(III) compounds exists. These experiments were performed by the company TopoGEN and at the University of Central Florida. The DNA cleavage experiments were performed in vitro using purified topoisomerase I and II enzymes and supercoiled plasmid DNA as the substrate. The controls that were used in the experiment were linear marker DNA as well as reactions without the gold(III) complex and high concentrations of VP16. The compound VP16 (etoposide) is a commercially available DNA intercalator chemotherapeutic agent, widely used in the treatment of lung and testicular cancers as well as lymphomas. […]

A further data set is described as follows: Microsomal clearance. The format is in vitro ADME. As to conditions: microsomes. An excerpt:
(§1) First, the compound is not genotoxic (i.e. mutagenic).

Another data set has as its system calf thymus DNA. Nature of the data set: Calf-thymus DNA titration (absorption hypochroism). The format is binding. As to conditions: MA series: pH 7.0 phosphate buffer at 37° C. On the procedure: FIG. 20 is a graph of the titration of MA_AuPr (1.1a) with calf-thymus DNA in aqueous pH 7 phosphate buffer at 37° C.
The hypochroism of the absorption band of the complex at 383 nm was monitored as a function of added ctDNA. […] Ka is the equilibrium binding constant in M^−1, Ct is the total Au(III) complex concentration, and s is the binding site size.

Another data set is described as follows: Genotoxicity.
Excerpt: as §1

Data set [1] is described as follows: Hydrolysis in aqueous solution. The format is physicochemical. Particulars: aqueous / phosphate buffered aqueous solutions. An excerpt: This is why binding to DNA of the intact chelate occurs (FIGS. 14 and 20). However, it is noteworthy that hydrolysis of a Au(III)-Npyrrole bond is a reaction that may be catalyzed by enzymes in plasma and could account for the plasma instability of MA_AuPr.

The test system of data set [2] is 60 human cancer cell lines. As to the kind of experiment: NCI-60 five-dose screen, mean cytotoxicity over 60 human cancer cell lines. The format is cell-based. On the procedure: The gold(III) complexes of this invention were screened by the National Cancer Institute (NCI, USA) against their panel of 60 different human cancer cell lines. These screens initially entail a one-dose test for the compound at a high concentration (10 μM; e.g. FIGS. 5, 6 and 7). Compounds with a good cytotoxicity profile in the one-dose screen are then subjected to a five-dose screen for the full panel of sixty human cancer cell lines (the so-called 5-dose NCI-60 screen). In the full five-dose screen, the compound concentration is varied in five doses from 10^−8 M to 10^−4 M in order to establish a dose-response function of percentage cell growth versus the concentration of the test agent. […] Similar data will shortly be available for compounds 1.1Y^1b and 1.5Y^1a as these derivatives are in 5-dose screens currently at the NCI.
The mean cytotoxicity data summarized in Scheme 7 were compiled over 60 human cancer cell lines from the NCI database. […] The dose-response curves for the bis(pyrrolide-imine) chelates of the invention are steeper, or harder, than those of all the compounds compared in Scheme 7.

The values that follow come from patent publication US9346832B2, “Gold complexes for use in the treatment of cancer” (University of Kwazulu-Natal, priority 2010, dated 2016).

What is called GI50 is the concentration that inhibits growth by half. Read a high GI50 as lower sensitivity of the cells.

“Also recorded” adds a separate entry of the source.

Regarding `C1=NCCCN=Cc2ccc[n]2[Au+][n]2cccc21.[Cl-]` [MA_AuPr, 2,2′-{propane-1,3-diylbis[nitrilo(E)methylylidene]}bis(pyrrol-1-ido)gold(III) chloride], at topoisomerase I, the “activity against topoisomerase I” value is given as “inactivity; also recorded: not a topoisomerase I poison”. Further, in “Microsomal clearance”, the “Microsomal clearance t1/2” value is reported as “t1/2 < 10 min”. The “Ka (calf thymus DNA)” value with calf thymus DNA is 2.05(2) × 10^5 M^−1. Further, in the data set “Genotoxicity”, the Genotoxicity entry was “not genotoxic; also recorded: Negative”. For the same compound, the hydrolysis entry in data set [1] was “did not show hydrolysis”. Moreover, in data set [2] (60 human cancer cell lines), the “fraction of cancer cell lines equivalently or more susceptible than to cisplatin” value was “ca. 25%”. In data set [2] (mean over 60 human cancer cell lines, 50% cell death, read-out: LC50 (the source's name)), the CC50 was 49 µM. The compound also returned a GI50 in data set [2] (mean over 60 human cancer cell lines, 50% growth inhibition) of 7 µM. The TGI (concentration for total growth inhibition) in data set [2] (mean over 60 human cancer cell lines, 100% (total) growth inhibition, read-out: TGI or IC50) is 20 µM. Further, in data set [2] (on average over the full 60 cell lines), the “increase in concentration from 50% growth inhibition to 50% cell kill” value amounted to 7 fold. The “growth inhibition activity relative to cisplatin, on average” value in data set [2] (plot of −log(GI50/M) versus cisplatin, FIG. 10) was 95%.
